Measured values: US20210139610A1, “COMPOSITIONS AND METHODS FOR MEDIATING EPS” (priority 2018, published 2021)
“Also recorded” adds a separate entry of the source.

Legend:
[1] = test system: DNABII proteins; test: DNABII proteins in NTHI biofilm and culture media (immunofluorescence, Western blot); format: cell-based, Non-typeable Haemophilus influenzae; settings: HMGB1 treatment at 24 h, read at 40 h
Experimental: FIGS. 38A-38C: HMGB1 displaces DNABII proteins thereby disrupting NTHI biofilms. Non-typeable Haemophilus influenzae biofilms were grown in supplemented BHI media in 8 well chambered coverglass slides at 37° C. and 5% CO2. After 24 h, biofilms were treated as indicated. (FIG. 38A) After 40 h, biofilms were washed, probed with primary antibodies directed against DNABII proteins (light gray dots), a fluorescent secondary antibody, stained with DAPI (gray regions), and visualized via fluorescence microscopy. (FIG. 38B) Media from biofilm cultures was collected and analyzed via Western blot with a primary antibody that recognizes DNABII proteins. […] (FIG. 38C) COMSTAT quantification NTHI biofilms stained with LIVE/DEAD® and visualized with confocal microscopy after treatment with 5 mg/mL HMGB1.

[2] = test system: poly(dG-dC) substrate; test: poly(dG-dC) substrate nuclease degradation (gel electrophoresis); format: biochemical; settings: in presence of protective concentrations of spermidine/polyamines
Experimental: FIG. 32: Z-DNA formation protects DNA from nuclease degradation. A poly(dG-dC) substrate was incubated with salt activated nuclease (SAN) or DNase I in increasing concentrations of NaCl, spermine, or spermidine as indicated above. Degradation products were visualized by gel electrophoresis. High salt and polyamines protect DNA from degradation through conversion to the Z-DNA form.
FIGS. 34A-34B: DNABII proteins protect DNA by shifting to Z-DNA form. (FIG. 34A) A poly(dG-dC) substrate was incubated with DNase I in increasing concentrations of NTHi HU as indicated above. Degradation products were visualized by gel electrophoresis. […] (FIG. 34B) Top: Circular dichroism spectrum of a B-DNA substrate being converted to Z-DNA by increasing concentrations of a Z-DNA catalyst (adapted from Rahmouni (1992) Mol Microbiol. 6(5):569-72). Note inversion of negative peak around 250 nm and positive peak around 280 nm. Bottom: Poly(dGdC) DNA (5 μg) was incubated with HU (15 μM) for 2 h and CD spectra collected.
FIG. 41: HMGB1 reverts polyamine-induced Z-DNA to a nuclease sensitive B-DNA state. A poly(dG-dC) substrate was incubated with spermidine and HMGB1. Degradation products were visualized by gel electrophoresis.

[3] = test system: B. cenocepacia; test: Mouse lung infection with B. cenocepacia (aggregates, CFU in BAL); format: in vivo, C57BL/6 mice; settings: 10^7 CFU i.t. with simultaneous 5 mg rHMGB1 or mHMGB1, 18 h
Experimental: (§1) (FIG. 40A) B. cenocepacia biofilms were grown in LB media in 8 well chambered coverglass slides at 37° C. and 5% CO2. After 24 h, biofilms were treated 5 mg/mL HMGB1. After a total of 40 h, biofilms were stained with LIVE/DEAD®, visualized via CLSM and analyzed by COMSTAT. Bars represent the SEM. (FIG. 40B) C57BL/6 mice were infected with 10^7 CFU i.t., and simultaneously received 5 mg rHMGB1 or mHMGB1, a C45 S non-inflammatory variant. Aggregates of B. cenocepacia were visible by fluorescence microscopy in sections probed with an α-B. cenocepacia antibody (gray). After 18 h, (FIG. 40C) CFUs were quantified in BAL. Bars represent SD. *P<0.05, ***P<0.001.

[4] = test system: NTHI biofilms in the middle ear; test: Chinchilla model of otitis media due to NTHI, middle ear biofilm scoring; format: in vivo; settings: 5 μg to middle ears at 4 and 5 days post infection, scored 24 h later
Experimental: FIGS. 39A-39B: HMGB1 promotes biofilm resolution in an experimental model (chinchilla host) of OM. Diluent or 5 μg rHMGB1 or mHMGB1 were delivered directly to middle ears of chinchillas at 4 and 5 days post infection with NTHI. Animals were sacrificed 24 h later, and their middle ears were imaged (FIG. 39A) and blindly scored (FIG. 39B) based on the criteria described in the bottom of (FIG. 39A). Bars represent SEM. ***P<0.001.

[5] = test system: Z-DNA and B-DNA in the NTHI biofilm extracellular matrix; test: Immunofluorescence CLSM for Z-DNA / B-DNA in NTHI biofilms; format: cell-based, Non-typeable Haemophilus influenzae; settings: HMGB1 treatment at 24 h, read at 40 h
Experimental: FIG. 31: DNase degrades B-DNA, but not Z-DNA, within the biofilm extracellular matrix. DNase (Pulmozyme; 5 units) was added at 24 h after biofilm seeding to in vitro pre-formed NTHI biofilms.
FIG. 37: HMGB1 destabilizes Z-DNA structures in the biofilm extracellular matrix. Non-typeable Haemophilus influenzae biofilms were grown in supplemented BHI media in 8 well chambered coverglass slides at 37° C. and 5% CO2. After 24 h, biofilms were treated as indicated above. After 40 h, biofilms were washed, probed with primary antibodies directed against Z-DNA (light gray dots), a fluorescent secondary antibody, stained with DAPI (gray regions), and visualized via fluorescence microscopy.
FIGS. 50A-50B: Equilibrium shift of B-DNA to Z-DNA conversion alters biofilm formation. NTHI biofilms formed for 24 h were incubated with cerium chloride (CeCl3) or chloroquine for an additional 16 h and were probed with naive or anti-Z-DNA (white) by immunofluorescence CLSM.
FIGS. 51A-51B: Equilibrium shift of B-DNA to Z-DNA conversion alters biofilm formation. NTHI biofilms formed for 24 h were incubated with cerium chloride (CeCl3) (FIG. 51A) or chloroquine (FIG. 51B) for an additional 16 h. Z-DNA was measured by IF and CLSM using anti-Z-DNA and cells were stained with the membrane stain FM4-64. Bars represent the SEM. Statistical significance compared to control was assessed by paired t-tests, *P<0.05, **P<0.01.

[6] = test system: B. cenocepacia biofilms; test: Burkholderia cenocepacia in vitro biofilm disruption (COMSTAT); format: cell-based; settings: 5 mg/mL HMGB1 at 24 h, total 40 h
Experimental: as §1

[7] = test system: preformed NTHI biofilms; test: Disruption of pre-formed NTHI biofilms (treatment after initial growth; LIVE/DEAD, CLSM, COMSTAT); format: cell-based, Non-typeable Haemophilus influenzae; settings: 5 mg/mL HMGB1, treated at 24 h
[8] = test system: spermidine in the NTHI biofilm matrix; test: Immunofluorescence for spermidine in NTHI biofilm matrix; format: cell-based, Non-typeable Haemophilus influenzae; settings: grown 40 h in presence of DCHA
Experimental: FIG. 15: Non-typeable Haemophilus influenzae biofilms were grown for 40 h in supplemented BHI media containing additives as indicated above in 8 well chambered coverglass slides at 37° C. and 5% CO2. Biofilms were washed, probed with primary antibodies directed towards spermidine, a fluorescent secondary antibody (dark gray dots), and stained with DAPI (gray regions).
(§2) Dicyclohexylamine inhibits spermidine synthase via a competitive inhibition mechanism, i.e. through binding to the same site on the protein as the putrescine substrate. Applicants therefore hypothesized that dicyclohexylamine would inhibit NTHi biofilm development.

[9] = test system: eDNA scaffold structure of NTHI biofilms; test: eDNA scaffold structure in early (3 h) NTHI biofilms, dsDNA immunofluorescence; format: cell-based, Non-typeable Haemophilus influenzae; settings: DCHA 50 μM
Experimental: FIGS. 3A-3C: Polyamine synthesis inhibitor reduces biofilm formation. (FIG. 3A) COMSTAT quantification of LIVE/DEAD® stained NTHI biofilms grown in the presence of dicyclohexylamine (DCHA, 50 μM), a spermidine (Spd) synthase inhibitor, Spd (1 mM), or both. Bars represent the SEM. Statistical significance compared to control was assessed by unpaired t-tests, *P<0.05. […] (FIG. 3B) Immunofluorescence microscopy images of eDNA scaffold structure in NTHI in vitro biofilms grown for 3 h in the presence of DCHA (50 μM). […] (FIG. 3C) Immunofluorescence CLSM images of NTHI in vitro biofilms grown for 40 h in the presence of DCHA. Probed for Spd (white dots in FIG. 3C lower panel) and counterstained with DAPI (gray regions).
FIG. 16: Surface attached non-typeable Haemophilus influenzae were grown for 3 h in supplemented BHI media containing additives as indicated above in Fluorodish coverglass dishes at 37° C. and 5% CO2. Biofilms were washed, probed with primary antibodies directed towards double stranded DNA and a fluorescent secondary antibody (white).
as §2

[10] = test system: Non-typeable Haemophilus influenzae biofilms; test: NTHI in vitro biofilm formation, additive present from seeding (LIVE/DEAD, CLSM, COMSTAT); format: cell-based; settings: for NTHI biofilm formation (average thickness, biomass): DCHA 50 μM
Experimental: FIG. 14: Non-typeable Haemophilus influenzae biofilms were grown for 40 h in supplemented BHI medium containing additives as indicated below each bar in 8 well chambered coverglass slides at 37° C. and 5% CO2. Biofilms were washed, stained with LIVE/DEAD®, fixed, and imaged by CLSM. Biofilm parameters were quantified using COMSTAT software.
Dicyclohexylamine inhibits spermidine synthase via a competitive inhibition mechanism, i.e. through binding to the same site on the protein as the putrescine substrate. Applicants therefore hypothesized that dicyclohexylamine would inhibit NTHi biofilm development. […]

[11] = test system: spermidine levels in UPEC biofilms; format: cell-based
[12] = test system: Non-typeable Haemophilus influenzae; test: NTHI growth (absorbance at 490 nm, colony-forming units); format: cell-based; settings: 16 h, supplemented BHI, up to 10 mM
Experimental: FIG. 13: Non-typeable Haemophilus influenzae were grown for 16 h in supplemented BHI media containing additives as indicated above in 96 well plates at 37° C. and 5% CO2. Growth was quantified by spectrophotometric absorbance at 490 nm (left) and by enumeration of colony-forming units (right).
as §2

[13] = test system: Non-typeable Haemophilus influenzae biofilms; test: NTHI in vitro biofilm formation, additive present from seeding (LIVE/DEAD, CLSM, COMSTAT); format: cell-based; settings: RNase A present from seeding, 16 h
[14] = listed as Dicyclohexylamine (DCHA)
[15] = listed as dicyclohexylamine (DCHA)
[16] = listed as spermidine synthase inhibitor
[17] = 50 μM dicyclohexylamine, 40 h, COMSTAT

Molecule: HMGB1: high mobility group box 1 protein, eukaryotic chromatin protein of 215 amino acids
- DNABII proteins in / released from the biofilm matrix [1]: DNABII proteins were released from the biofilm; also recorded: displaced DNABII proteins from the biofilm matrix
- nuclease sensitivity of poly(dG-dC) substrate [2]: restored nuclease sensitivity to spermidine-induced Z-DNA substrates
- B. cenocepacia aggregate biofilm in lungs [3]: prevented B. cenocepacia aggregate biofilm formation in the lungs of mice; also recorded: significantly disrupts B. cenocepacia biofilms in situ
- resolution of middle ear NTHI biofilms [4]: efficient resolution of adherent biofilms; also recorded: promoted clearance of pre-existing NTHI biofilms in situ
- Z-DNA content of NTHI biofilm matrix [5]: diminished Z-DNA content; also recorded: reduced Z-DNA structures in the biofilm matrix
- B. cenocepacia biofilm disruption in vitro [6]: effective at disrupting biofilms formed in vitro by Burkholderia cenocepacia; also recorded: disrupts Burkholderia cenocepacia biofilms
- NTHI biofilm disruption [7]: significant biofilm disruption; also recorded: disrupts biofilms by displacing DNABII proteins

Molecule: C1CCC(NC2CCCCC2)CC1 [dicyclohexylamine]
- spermidine / polyamine presence in NTHI biofilm matrix [8]: statistically significant corresponding decrease in spermidine present in the biofilm matrix
- spermidine / polyamine presence in NTHI biofilm matrix ([8]; listed as DCHA): reduced extracellular polyamine incorporation into the biofilm EPS; also recorded: inhibits polyamine incorporation into the biofilm EPS
- spermidine / polyamine presence in NTHI biofilm matrix [8, 14]: reduces spermidine levels in NTHI and UPEC biofilms
- spermidine / polyamine presence in NTHI biofilm matrix [8, 15]: an overall decrease in spermidine levels as measured by IF
- spermidine / polyamine presence in NTHI biofilm matrix [8, 16]: reduced spermidine presence in the biofilm matrix
- eDNA scaffold structure amount and complexity ([9]; listed as DCHA): inhibited production of the eDNA scaffold; also recorded: eDNA scaffold structure production is greatly reduced
- eDNA scaffold structure amount and complexity ([9]; listed as Dicyclohexylamine): reduced the amount and the complexity of eDNA scaffold structures
- eDNA scaffold structure amount and complexity [9, 16]: reduced both the presence and complexity of the extracellular DNA structure
- biofilm roughness ([10]; 50 μM dicyclohexylamine, 40 h): increasing biofilm roughness
- reduction of biofilm biomass [10, 17]: approximately 40%
- reduction of biofilm thickness [10, 17]: approximately 40%
- NTHI biofilm formation (average thickness, biomass) [10]: significantly inhibited NTHi biofilm formation
- NTHI biofilm formation (average thickness, biomass) ([10]; listed as DCHA): inhibited biofilm biogenesis in vitro, decreasing average thickness and biomass; also recorded: Average thickness of biofilms was decreased
- NTHI biofilm formation (average thickness, biomass) ([10]; listed as Dicyclohexylamine): inhibited biofilm biogenesis
- NTHI biofilm formation (average thickness, biomass) [10, 14]: significantly decreased average thickness compared to sBHI control
- NTHI biofilm formation (average thickness, biomass) [10, 15]: a significant decrease in biofilm average thickness
- spermidine levels in UPEC biofilms [11]: reduces spermidine levels in NTHI and UPEC biofilms
- NTHi growth [12]: did not affect NTHi growth up to 10 mM
- NTHi growth ([12]; listed as DCHA): did not affect NTHI growth
- NTHi growth [12, 16]: did not affect normal growth

B1: RNase A: ribonuclease (protein, UniProt P61823 27-150, looked up)
Ribonuclease pancreatic: KETAAAKFERQHMDSSTSAASSSNYCNQMMKSRNLTKDRCKPVNTFVHESLADVQAVCSQKNVACKNGQTNCYQSYSTMSITDCRETGSSKYPNCAYKTTQANKHIIVACEGNPYVPVHFDASV
- NTHI biofilm formation [13]: stimulated biofilm formation in a dose-dependent manner
